Measurements as given in US9408853B2, “Iridium/rhodium anti-cancer compounds” (University of Warwick, priority 2010, dated 2016).

Tests used:
[1] = tested on: ca. 60 cell lines within nine tumour type subpanels; type: cell-based
Source text: Six complexes, [(η^5-C5Me4C6H4C6H5)Ir(bpy)Cl]PF6 (ZL25, bpy=2,2′-bipyridine), [(η^5-C5Me4C6H5)Ir(phen)Cl]PF6 (ZL33, phen=1,10-phenanthroline), [(η^5-C5Me4C6H4C6H5) Ir(pico)Cl] (ZL43, pico=picolinate), [(η^5-C5Me5)Ir(2-phpy)Cl] (ZL47), [(η^5-C5Me4C6H4C6H5)Ir(2-phPY)(D2O)Cl] (ZL49) and [(η^5-C5Me4C6H4C6H5) Ir(phen)Cl]PF6 (ZL54), were selected by Developmental Therapeutics Program of National Cancer Institute (NCI, U.S.A.) for in vitro screening test, in which 5 complexes except ZL43 are selected for further testing. The five complexes were tested on ca. 60 cell lines within nine tumour type subpanels at five concentrations ranging from 0.01 to 100 μM.

9-ethylguanine (9-EtG) = test: Interactions with nucleobases: 9-EtG adduct formation (1H NMR); type: binding; details: 1 mM, 1 mol equiv 9-EtG (ZL33A: 2 mol equiv), D2O, 310 K
Description: (§1) Interactions with Nucleobases. The reaction of ZL01, ZL03, ZL04, ZL07, ZL25, ZL33, ZL37, ZL38, ZL43 and ZL54 and ZL33A with nucleobases typically involved addition of a solution containing 1-2 mol equiv of nucleobase in D2O, to an equilibrium solution of ZL01, ZL03, ZL04, ZL07, ZL25, ZL33, ZL37, ZL38, ZL43, ZL54 and ZL33A in a solution of 5% MeOD-d4/95% D2O (v/v). ^1H NMR spectra of these solutions were recorded at 310 K after various time intervals.
(§2) Since DNA is a potential target site for transition metal anticancer complexes,^18 nucleobase binding reactions of compounds ZL01, ZL03, ZL04, ZL07, ZL25, ZL33, ZL33A, ZL37, ZL38, ZL43 and ZL54 with nucleobase models 9-ethylguanine (9-EtG) and 9-ethyladenine (9-EtA), were investigated. Solutions of ZL01, ZL03, ZL04, ZL07, ZL25, ZL33, ZL37, ZL38, ZL43 and ZL54 (1 mM) (containing an equilibrium mixture of these complexes and their respective aqua adducts) with 1 mol equivalent of 9-EtG or 9-EtA in D2O were prepared, and ^1H NMR spectra were recorded at different time intervals.
Interactions with Nucleobases. Since DNA is a potential target site for transition metal anticancer complexes,^23 the binding of 9-ethylguanine (9-EtG) to complexes ZL47, ZL49, ZL69, ZL74 and ZL107 was studied.

9-ethyladenine (9-EtA) = test: Interactions with nucleobases: 9-EtA adduct formation (1H NMR); type: binding; details: 1 mM, 1 mol equiv 9-EtA, D2O, 310 K
Description: as §1, §2

[2] = tested on: human ovarian A2780 cancer cells; test: Cancer cell cytotoxicity, SRB assay; type: cell-based; details: 24 h exposure, 72 h recovery, SRB; read-out: A2780 IC50
Description: Cancer Cell Cytotoxicity. After plating, human ovarian A2780 cancer cells were treated with Ir^III complexes on day 3 at concentrations ranging from 0.5 μM to 100 μM. Solutions of the Ir^III complexes were made up in 0.125% DMSO to assist dissolution. Stock solutions of the IrIII complexes were firstly prepared in DMSO to assist dissolution, and then diluted into 0.9% saline and medium. After plating 5000 A2780 cells per well on day 1, IrIII complexes were added to the cancer cells on day 3 at concentrations ranging from 0.05 μM to 100 μM. Cells were exposed to the complexes for 24 h, washed, supplied with fresh medium, allowed to grow for three doubling times (72 h), and then the protein content measured (proportional to cell survival) using the sulforhodamine B (SRB) assay.^15 […]. The standard errors are based on two independent experiments of three replicates each.

[3] = Kinetics of hydrolysis followed by 1H NMR; type: physicochemical; details: for k (hydrolysis): 0.2 mM, 5% MeOD-d4/95% D2O, pH* 3; for Ea (Arrhenius activation energy of hydrolysis): from Arrhenius plot; for ΔH^‡ (activation enthalpy of hydrolysis) / ΔS^‡ (activation entropy of hydrolysis): from Eyring plot
Description: Kinetics for Hydrolysis. Although complexes ZL01-ZL04, ZL07, ZL38 and ZL43 hydrolyzed too rapidly to monitor by ^1H NMR, The kinetics of hydrolysis for complexes ZL25, ZL33, ZL37 and ZL54 were followed by ^1H NMR at different temperatures. For this, solutions of the complexes with a final concentration of 0.2 mM in 5% MeOD-d4/95% D2O (v/v) were prepared by dissolution of the complexes in MeOD-d4 followed by rapid dilution using D2O with a pH* of about 3 (acidified with HClO4), so that the aqua ligand was not deprotonated. ^1H NMR spectra were taken after various time intervals. The rates of hydrolysis were determined by fitting plots of concentrations (determined from ^1H NMR peak integrals) versus time to a pseudo first-order equation using ORIGIN version 7.0. The Arrhenius activation energy (Ea), activation enthalpies (ΔH^¢), and activation entropy (ΔS^‡) for compounds ZL25, ZL33, ZL37 and ZL54 were determined from the slopes of the Arrhenius and intercepts of Eyring plots.
The rates of hydrolysis of compounds ZL01-ZL04, ZL07, ZL25, ZL33, ZL37, ZL38, ZL43 and ZL54 in a 5% MeOD-d4/95% D2O were monitored by ^1H NMR at different temperature from 278 to 298 K by the observation of new peaks over time due to aqua adduct formation. Five percent MeOD was used to improve solubility, and acidic conditions (D2O, pH* 3) were used to prevent the deprotonation of the aqua complex as a secondary reaction. […] The percentage of aqua peak formation for ZL25, ZL33, ZL37 and ZL54 was plotted against time and was fitted to pseudofirst order kinetics (FIG. 3), and their halflife times were calculated (Table 1). The Arrhenius activation energy (Ea), activation enthalpy (ΔH^¢), and activation entropy (ΔS^‡) of compound ZL25, ZL33, ZL37 and ZL54 are listed in Table 4. The large negative ΔS^‡value for compound ZL54 is notable. The extent of hydrolysis at equilibrium is medium for all compounds, ranged from 30% to 60%.

A549 cancer cell line = test: Cytotoxicity, MTT assay (Brabec group); type: cell-based; details: for IC50: 72 h incubation, MTT
Description: (§3) The cytotoxicity test of ZL07, ZL33, ZL38 and ZL54 against A2780, SW480, A549 and CH1 cell lines was performed by Viktor Brabec group (Institute of Biophysics, Academy of Sciences of the Czech Republic). After plating, the cells were treated with ZL07, ZL33, ZL38 and ZL54. After 72h of incubation 10 μl of MTT (2.5 mg/ml; CALBIOCHEM) was added to each well and incubated for 4 h in culture conditions. At the end of the incubation period the medium was removed and the formazan product was dissolved in 100 μl DMSO. The cell viability was evaluated by measurement of the absorbance at 570 nm, using an Absorbance Reader SUNRICE TECAN SCHOELLER. […] All experiments were made in quadruplicate.

SW480 cancer cell line = test: Cytotoxicity, MTT assay (Brabec group); type: cell-based; details: for IC50: 72 h incubation, MTT
Description: as §3

CH1 cancer cell line = test: Cytotoxicity, MTT assay (Brabec group); type: cell-based; details: 72 h incubation, MTT
Description: as §3

| Structure (SMILES) | Reaction with 9-EtG, extent of adduct formation (9-ethylguanine (9-EtG); 10 min) | Reaction with 9-EtA, extent of adduct formation (9-ethyladenine (9-EtA); 10 min) | Reaction with 9-EtA, extent of adduct formation (9-ethyladenine (9-EtA); 24 h) | IC50 [2] | k (hydrolysis) ([3]; 278 K) | Ea (Arrhenius activation energy of hydrolysis) [3] | ΔH^‡ (activation enthalpy of hydrolysis) [3] | ΔS^‡ (activation entropy of hydrolysis) [3] | Reaction with 9-EtG, extent of adduct formation (9-ethylguanine (9-EtG); 24 h) | also measured |
| --- | --- | --- | --- | --- | --- | --- | --- | --- | --- | --- |
| Cc1c(C)c(-c2ccc(-c3ccccc3)cc2)[c-](C)c1C.F[P-](F)(F)(F)(F)F.[Cl-].[Ir+3].c1ccc(-c2ccccn2)nc1 (stereo not drawn) [ZL25, [(η^5-C5Me4C6H4C6H5)Ir(bipy)Cl]PF6] | 24.2% | 0% | 0% | 0.57 µM | 0.0249 min⁻¹ | 14.4 kcal/mol | 13.9 kcal/mol | −66.02 J K^−1mol^−1 |  | CC50 [1]: 67.6 µM; Mean graph midpoint (MID) TGI ([1]; ca. 60 cell lines, 0.01 to 100 μM): 19.1 µM; GI50 ([1]; ca. 60 cell lines, 0.01 to 100 μM, read-out: Mean graph midpoint (MID) GI50): 4.1 µM; selectivity among tumour type subpanels (in words) ([1]; mean graphs): selectivity with higher activity not only towards leukemia, CNS cancer, melanoma, and prostate cancer, but also against colon cancer and breast cancer; k (hydrolysis) ([3]; 283 K): 0.0405 min⁻¹; k (hydrolysis) ([3]; 293 K): 0.0986 min⁻¹ |
| Cc1c(C)c(-c2ccc(-c3ccccc3)cc2)[c-](C)c1C.F[P-](F)(F)(F)(F)F.[Cl-].[Ir+3].c1cnc2c(c1)ccc1cccnc12 (stereo not drawn) [ZL54, [(η^5-C5Me4C6H4C6H5)Ir(phen)Cl]PF6] | 62.2% | 0% | 0% | 0.72 µM | 0.0179 min⁻¹ | 10.9 kcal/mol | 10.4 kcal/mol | −121.2 J K^−1mol^−1 |  | IC50 (A549 cancer cell line): 1.58 ± 0.4 µM; times more active than cisplatin (A549 cancer cell line; A549): ~3.7 times; IC50 (SW480 cancer cell line): 1.38 ± 0.2 µM; times more active than cisplatin (SW480 cancer cell line; SW480): about 6.7 times; IC50 (CH1 cancer cell line): 0.69 ± 0.04 µM; k (hydrolysis) ([3]; 288 K): 0.0352 min⁻¹; k (hydrolysis) ([3]; 293 K): 0.0516 min⁻¹ |
| Cc1c(C)c(C)[c-](C)c1C.[Cl-].[Cl][Ir]1[n+]2ccccc2-c2cccc[n+]21 [ZL04, [(η^5-C5Me5)Ir(bipy)Cl]Cl] | 28.2% | 0% | 0% | > 100 µM |  |  |  |  |  |  |
| N.N.[Cl][Pt][Cl] [Cisplatin, reference compound] |  |  |  | 1.2 µM |  |  |  |  |  | IC50 (A549 cancer cell line): 5.9 ± 1.9 µM; IC50 (SW480 cancer cell line): 9.24 ± 1.1 µM; IC50 (CH1 cancer cell line): 0.59 ± 0.1 µM |
| Cc1c(C)c(-c2ccc(-c3ccccc3)cc2)[c-](C)c1C.O=C([O-])c1ccccn1.[Cl-].[Ir+3] (stereo not drawn) [ZL43, [(η^5-C5Me4C6H4C6H5)Ir(η^2—C5H4N-2-CO2)Cl]] | 100% | 71% | 71% | 16.3 µM |  |  |  |  | 100% | rate of hydrolysis (in words) ([3]; 1H NMR, even at 278K): too rapid to be observed |
| Cc1c(C)c(-c2ccccc2)[c-](C)c1C.F[P-](F)(F)(F)(F)F.[Cl-].[Ir+3].c1ccc(-c2ccccn2)nc1 (stereo not drawn) [ZL37, [(η^5-C5Me4C6H5)Ir(bipy)Cl]PF6] | 18.6% | 0% | 0% | 15.9 µM | 0.0341 min⁻¹ | 19.7 kcal/mol | 19.1 kcal/mol | 14.7 J K^−1mol^−1 |  | k (hydrolysis) ([3]; 283 K): 0.0652 min⁻¹; k (hydrolysis) ([3]; 288 K): 0.1229 min⁻¹ |
| Cc1c(C)c(C)[c-](C)c1C.F[P-](F)(F)(F)(F)F.NCCN.[Cl-].[Ir+3] [ZL01, [(η^5-C5Me5)IrCl(H2NCH2CH2NH2—N,N)]PF6] | 100% | 0% | 0% | > 100 µM |  |  |  |  | 100% |  |
| Cc1c(C)c(C)[c-](C)c1C.O=C([O-])c1ccccn1.[Cl-].[Ir+3] [ZL03, [(η^5-C5Me5)Ir(η^2—C5H4N-2-CO2)Cl]] | 100% | 80.8% | 80.7% | > 100 µM |  |  |  |  | 100% |  |
